Measured values as given in patent US6596712B2, “Treatment of carcinomas using squalamine in combination with other anti-cancer agents or modalities” (Genaera Corporation, priority 1996, dated 2003).

Experiments:
H460 = H460 lung tumor xenograft with carboplatin; assay type: in vivo, nude BALBc mice
Experimental: (§1) About 5×10^6 cells from each of two human lung tumor lines, H460 (a rapidly proliferating large cell carcinoma cell line, ATCC HTB-177) and Calu-6 (an anaplastic carcinoma, ATCC HTB-56), were inoculated subcutaneously in the right foreleg of nude BALBc mice. Once tumors were visible (3-5 days) with a mean volume of approximately 50-80 mm^3, mice were treated intraperitoneally with 60 mg/kg carboplatin (single dose) or 20 mg/kg/squalamine (once daily for 5 days) or a combination of carboplatin and squalamine. There were 8 mice per group. Tumor growth inhibition was scored by quantifying the size of tumors once control tumors reached a size of 1.0 gram and determining the ratio of mean treated tumor size to mean control tumor size (T/C). Tumor growth inhibition was then scored as 100% x [1-(T/C)]. A separate antitumor activity variable, tumor growth delay, was scored for the tumors by determining the length of time it required for the mean tumor size in a treatment group to reach a size of 500 mm^3 (B. A. Teicher et al., Anticancer Research 18, 2567-2574 (1998)). The tumor growth inhibition seen with carboplatin plus squalamine was greater than that seen with carboplatin or squalamine alone. The relative inactivity of squalamine as a single agent by this assay endpoint supports the idea that squalamine is synergistic with carboplatin in the inhibition of these two human lung tumor xenografts. Similarly, it was determined that squalamine enhanced the tumor growth delay caused by carboplatin by an enhancement factor of >2.3 (Table 7).

Calu-6 = Calu-6 lung tumor xenograft with carboplatin; assay type: in vivo, nude BALBc mice
Experimental: as §1

LNCaP cells = experiment: LNCaP cell growth in vitro ([3H]-thymidine incorporation); assay type: cell-based, human; conditions: media containing serum
Experimental: The anti-proliferative effect of squalamine was evaluated in tissue culture by both crystal violet staining and [^3H]-thymidine incorporation, on the LNCaP/C4-2 human prostate cancer progression model. Developed by applicants' laboratory, this lineage-derived cell line recapitulates the progression of human neoplastic prostate disease from an androgen-dependent and minimally metastatic condition (LNCaP cells) to an androgen-independent (defined as being able to proliferate in castrate hosts) and highly aggressive state (C4-2 subline).
In vitro experiments were also conducted with the LNCAP cell line in which cell proliferation as judged by [3H]-thymidine uptake was determined. LNCaP cells were maintained as previously described (cf. J. T. Hsieh et al., Cancer Research 53, 2852-2857 (1993)). Cells were exposed to 20 ng/mL vascular endothelial growth factor (VEGF), 20 μg/mL squalamine or a combination of VEGF and squalamine. […] As a consequence, the mechanism underlying the effectiveness of squalamine treatment of the LNCaP tumor in vivo may under certain conditions also involve direct inhibition of tumor cell growth and/or induction of tumor cell death.

[1] = test system: murine Lewis lung adenocarcinoma; experiment: Lung metastases of subcutaneous Lewis lung carcinoma; assay type: in vivo, C57BL/6 mice; conditions: day 20; squalamine 20 mg/kg/day s.c.; cyclophosphamide 125 mg/kg i.p. days 7, 9, 11; cisplatin 10 mg/kg i.p. day 7
Experimental: The murine Lewis lung adenocarcinoma was implanted subcutaneously in the hind-leg of male C57BL/6 mice and allowed to grow for one week. Groups of mice were then left untreated or treated with either squalamine (20 mg/kg/day, s.c.), cyclophosphamide (125 mg/kg, i.p. on days 7, 9 and 11), cisplatin (10 mg/kg, i.p. on day 7), the combination of squalamine and cyclophosphamide, or the combination of squalamine and cisplatin. On day 20, the animals were sacrificed, and the mean number of lung metastases were determined for each group.

[2] = test system: human MX-1 breast cancer line; assay type: in vivo; conditions: single 200 mg/kg dose on day 14
Experimental: These documents each are entirely incorporated herein by reference. Squalamine was examined as adjunctive therapy following a single 200 mg/kg dose of cyclophosphamide. The cyclophosphamide was injected on day 14 following implantation of the tumor, at a time when the tumors measured 65-125 μl. […] The animals were then randomized to three treatment arms (each n=27): vehicle dosing only (Intralipid); squalamine given 10 mg/kg/day in Intralipid; and squalamine given 20 mg/kg/day in Intralipid for five days a week. Animals whose tumors exceeded 2 grams at any time during the experiment were euthanized. The experiment was continued for 90 days after initiating squalamine treatment to ensure that only mice experiencing long-term cures were still alive.

parental 2008 cell line = experiment: Human ovarian tumor 2008 xenograft with cisplatin; assay type: in vivo, female Swiss nude mice; conditions: cisplatin single dose 4 mg/kg, squalamine 2 mg/kg, days 1-10
Experimental: Human ovarian tumor cells were injected subcutaneously (5×10^7 cells per animal) in the mid-back region of female Swiss nude mice. The human ovarian tumors were either the parental 2008 cell line (cf. R. J. Pietras et al., Oncogene 9, 1829-1838 (1994)) or a transfected variant overexpressing the Her-2/neu receptor. The overexpression of the Her-2/neu receptor is considered to make the resulting xenograft tumors more angiogenic and less responsive to chemotherapy. After one week, animals were randomized to groups receiving no treatment (controls), a single dose of cisplatin (4 mg/kg), daily treatment with squalamine (2 mg/kg, days 1-10) or cisplatin plus squalamine. The growth of tumors was then scored on day 28 following initiation of chemotherapy. The results were very similar with the parental 2008 tumor and the transfected variant overexpressing the Her-2/neu receptor. […] In this xenograft model, the [day 28 mean treated tumor weight increase divided by the day 28 mean control tumor weight increase (T/C)] x 100% was subtracted from 100% to give the tumor growth inhibition (TGI) value for each group.

NHE1, NHE2, NHE3 = conditions: FIG. 4; cited from earlier work
[3] = test system: 9L gliosarcoma tumors (9L glioma); experiment: 9L glioma flank study; assay type: in vivo, Fisher 344 rats; conditions: Day 25 or 26 after implantation; treatment from Day 5 per Table 4
Experimental: Four groups of rats (twenty total Fisher 344 rats, 200 g) were given s.q. transplants of 1 mm3 9L gliosarcoma tumors (9L glioma) on Day 0. The tumors were implanted in the rat flanks to avoid complications relating to adequate brain levels of squalamine. Randomization and treatment began on Day 5 according to the following scheme:
On Day 25 or 26 after tumor implantation, the tumor size was measured directly. The tumor size (i.e., its volume “V”) was estimated based on volumetric calculations determined from the measured length (“L”), width (“W”), and height (“H”) of the tumor (Vtumor spheroid˜0.5 ×L×W×H). The tumor volumes shown in Table 5 represent the mean tumor volumes for each treatment group for those animals that survived to the end of the experiment.

[4] = carboplatin 60 mg/kg i.p. single dose, squalamine 20 mg/kg once daily for 5 days
[5] = time for mean tumor size to reach 500 mm^3

## N.N.O=C([O-])C1(C(=O)[O-])CCC1.[Pt+2] [Carboplatin, carboplatin]
H460; [4]
  Tumor Growth Inhibition (T/C): 50%
H460; [5]
  Tumor Growth Delay: 2.9
Calu-6; [4]
  Tumor Growth Inhibition (T/C): 23%
Calu-6; [5]
  Tumor Growth Delay: 2.5

## VEGF
LNCaP cells; 20 ng/mL VEGF and/or 20 μg/mL squalamine, 24 hours
  Percent of Control [3H]-Thymidine Uptake: 84%
LNCaP cells; 20 ng/mL VEGF or 20 μg/mL squalamine
  effect on cell growth alone: minimal effects on cell growth

## O=P1(N(CCCl)CCCl)NCCCO1 (centres unmarked) [cyclophosphamide, N,N-Bis-(2-chloroethyl)-N′-(3-hydroxypropyl)phosphordiamidic acid cyclic ester monohydrate, reference compound]
[1]
  mean number of lung metastases: reduced the number of metastases
[2]
  tumor regression: partial regression in all animals and complete regression in a small fraction of the animals

## N.N.[Cl][Pt][Cl] [Cisplatin, cis-Diamminedichloroplatinum, reference compound]
Parental 2008 cell line
  Day 28 Mean Tumor Size: 5108 mm^3
Parental 2008 cell line; day 28
  Tumor Growth Inhibition (TGI) Index: 18%
[1]
  mean number of lung metastases: reduced the number of metastases

## N=C(N)NC(=O)c1nc(Cl)c(N)nc1N [amiloride]
NHE1, NHE2, NHE3
  NHE isoform selectivity: specifically act against NHE1 over NHE2 or NHE3

## O=NN(CCCl)C(=O)NCCCl [BCNU, 1,3-Bis(2-chloroethyl)-1-nitrosourea, reference compound]
[3]
  % Reduction (based on control volume): 86.1%
  Mean Tumor volume: 2,547 mm^3
